Source: article PMC520810, “Endoplasmic reticulum degradation impedes olfactory G-protein coupled receptor functional expression” (BMC Cell Biology, 2004)

Molecular target: T1, mOREG olfactory receptor (Olfr73) (Mus musculus, UniProt Q920P2)
T1 construct: gene Or5d18; N-terminal fusion with the first 20 amino acids of rhodopsin (Rho20-mOREG); untagged mOREG also measured
T1 sequence (Q920P2 1-313): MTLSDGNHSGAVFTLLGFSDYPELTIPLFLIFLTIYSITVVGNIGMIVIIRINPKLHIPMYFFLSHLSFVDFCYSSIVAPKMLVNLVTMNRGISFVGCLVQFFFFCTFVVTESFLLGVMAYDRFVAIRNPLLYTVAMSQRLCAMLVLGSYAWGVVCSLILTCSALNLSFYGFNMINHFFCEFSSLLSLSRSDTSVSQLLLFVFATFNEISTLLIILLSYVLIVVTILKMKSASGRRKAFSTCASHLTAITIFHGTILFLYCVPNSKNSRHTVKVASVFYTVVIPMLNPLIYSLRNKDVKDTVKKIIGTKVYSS
Test: calcium imaging (fluo-4) in HEK293 cells co-expressing Rho-mOREG and olfactory CNG channel
Assay type: cell-based
Excerpt: calcium imaging (fluo-4) in HEK293 cells co-expressing Rho-mOREG and olfactory CNG channel on mOREG olfactory receptor (Olfr73) | Responses to eugenol, a ligand for mOREG, were detected in cells co-expressing Rho-mOREG and CNG

C=CCc1ccc(O)c(OC)c1 [eugenol]
EC50: 20.8 µM
